Reference: patent US6534524B1, “Indazole compounds and pharmaceutical compositions for inhibiting protein kinases, and methods for their use” (Agouron Pharmaceuticals, Inc., priority 1999, dated 2003)
Read-outs that look alike come from different tables or passages of the source.

Test system: human umbilical vein endothelial cells (HUVEC)
Experiment: HUVEC proliferation assay (VEGF-stimulated, MTT);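 on % inhibition of the proliferation of HUVEC: relative to VEGF-stimulated control minus starvation-medium baseline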
Assay type: cell-based
Conditions: for % inhibition: Library III, HUVEC proliferation, nominal concentration of 0.5 nM; for % inhibition / % inhibition of the proliferation of HUVEC: crude reaction mixtures; for IC50: Homo sapiens, HUVEC, read-out: HUVEC + albumin IC50
Procedure: HUVEC Proliferation Assay
This assay determines the ability of a test compound to inhibit the growth factor-stimulated proliferation of human umbilical vein endothelial cells (“HUVEC”). HUVEC cells (passage 3-4, Clonetics, Corp.) were thawed into EGM2 culture medium (Clonetics Corp) in T75 flasks. Fresh EGM2 medium was added to the flasks 24 hours later. Four or five days later, cells were exposed to another culture medium (F12K medium supplemented with 10% fetal bovine serum (FBS), 60 μg/mL endothelial cell growth supplement (ECGS), and 0.1 mg/mL heparin). Exponentially-growing HUVEC cells were used in experiments thereafter. Ten to twelve thousand HUVEC cells were plated in 96-well dishes in 100 μl of rich, culture medium (described above). The cells were allowed to attach for 24 hours in this medium. The medium was then removed by aspiration and 105 μl of starvation media (F12K+1% FBS) was added to each well. After 24 hours, 15 μl of test agent dissolved in 1% DMSO in starvation medium or this vehicle alone was added into each treatment well; the final DMSO concentration was 0.1%. One hour later, 30 μl of VEGF (30 ng/mL) in starvation media was added to all wells except those containing untreated controls; the final VEGF concentration was 6 ng/mL. Cellular proliferation was quantified 72 hours later by MTT dye reduction, at which time cells were exposed for 4 hours MTT (Promega Corp.).
For screening compound library plates, one or two concentrations (one well per concentration) were employed, and the % inhibition was calculated by the following formula:
% inhibition=(control−test)÷(control−starvation)
% inhibition=(control-treated)/(control-starvation)×100

[1] = Library II, Y=S, 0.5 mM (column head; text: nominal 0.5 nM)
[2] = Library II, Y=S, 2 mM (column head; text: nominal 2 nM)
[3] = Library I, Y = CO, nominal concentration of 10 nM
[4] = Library I, Y = NH, nominal concentration of 10 nM
[5] = Library I, Y = O, nominal concentration of 10 nM

## COc1cccc(OC)c1CNC(=O)c1ccccc1Sc1ccc2c(/C=C/c3ccccn3)n[nH]c2c1
  % inhibition: −10%

## Cc1cc(O)ccc1NC(=O)c1ccccc1Sc1ccc2c(/C=C/c3ccccn3)n[nH]c2c1
  % inhibition: 12%

## O=C(Nc1ccc(O)cc1)c1ccccc1Sc1ccc2c(/C=C/c3ccccn3)n[nH]c2c1
  % inhibition: 52%

## O=C(Nc1cccc(C(=O)c2ccc3c(/C=C/c4ccccn4)n[nH]c3c2)c1)Oc1ccccc1 [Example 41(cc), 6-[3-(Phenoxyamindo)benzoyl]-3-E-[2-(pyridin-2-yl)ethenyl]-1H-indazole]
  IC50: > 100 nM

## CC(C)[C@@H](CO)NC(=O)c1ccccc1Sc1ccc2c(/C=C/c3ccccn3)n[nH]c2c1
  % inhibition: −19%

## O=C(Nc1nccc2ccccc12)c1ccccc1Sc1ccc2c(/C=C/c3ccccn3)n[nH]c2c1
  % inhibition: 4%

## O=C(Nc1cc(Cl)cc(Cl)c1)c1ccccc1Sc1ccc2c(/C=C/c3ccccn3)n[nH]c2c1
  % inhibition: −22%

## N/C(=N\O)c1[nH]cnc1NC(=O)c1ccccc1Sc1ccc2c(/C=C/c3ccccn3)n[nH]c2c1
  % inhibition: −15%

## Cc1cc(NC(=O)c2ccccc2Sc2ccc3c(/C=C/c4ccccn4)n[nH]c3c2)ccc1F
  % inhibition: 9%

## CN(C)CC(C)(C)CNC(=O)c1ccccc1Sc1ccc2c(/C=C/c3ccccn3)n[nH]c2c1
[1]
  % inhibition of the proliferation of HUVEC: 38%
[2]
  % inhibition of the proliferation of HUVEC: 5%

## COc1ccc(NC(=O)c2ccccc2Sc2ccc3c(/C=C/c4ccccn4)n[nH]c3c2)cc1F
  % inhibition: 9%

## CC(C)c1ccc(NC(=O)c2ccccc2Sc2ccc3c(/C=C/c4ccccn4)n[nH]c3c2)cc1
  % inhibition: −12%

## O=C(NCCC1OCCO1)c1ccccc1Sc1ccc2c(/C=C/c3ccccn3)n[nH]c2c1
[1]
  % inhibition of the proliferation of HUVEC: 38%
[2]
  % inhibition of the proliferation of HUVEC: 68%

## O=C(Nc1nc[nH]c1[N+](=O)[O-])c1ccccc1Sc1ccc2c(/C=C/c3ccccn3)n[nH]c2c1
  % inhibition: 7%

## Cc1cc(NC(=O)c2ccccc2Sc2ccc3c(/C=C/c4ccccn4)n[nH]c3c2)sn1
  % inhibition: 19%

## CCC(O)CNC(=O)c1ccccc1Sc1ccc2c(/C=C/c3ccccn3)n[nH]c2c1 (stereo not shown)
[1]
  % inhibition of the proliferation of HUVEC: 13%
[2]
  % inhibition of the proliferation of HUVEC: 23%

## CC(C)(C)c1nnc(NC(=O)c2ccccc2Sc2ccc3c(/C=C/c4ccccn4)n[nH]c3c2)s1
  % inhibition: −28%

## O=C(NCC1CCCCC1)c1ccccc1Sc1ccc2c(/C=C/c3ccccn3)n[nH]c2c1
  % inhibition: 3%

## CC(C)CCNC(=O)c1ccccc1Sc1ccc2c(/C=C/c3ccccn3)n[nH]c2c1 [drawing 614]
[1]
  % inhibition of the proliferation of HUVEC: 14%
[2]
  % inhibition of the proliferation of HUVEC: 55%

## CC(CCCC(C)(C)O)NC(=O)c1ccccc1Sc1ccc2c(/C=C/c3ccccn3)n[nH]c2c1 (stereo not shown)
  % inhibition: 3%

## O=C(NCc1ccc(F)c(F)c1)c1ccccc1Sc1ccc2c(/C=C/c3ccccn3)n[nH]c2c1
  % inhibition: 0%

## O=C(NCC1COc2ccccc2O1)c1ccccc1Sc1ccc2c(/C=C/c3ccccn3)n[nH]c2c1 (stereo not shown)
  % inhibition: −13%

## CNC(=O)c1cccc(F)c1Sc1ccc2c(/C=C/c3ccccn3)n[nH]c2c1 [Example 37(d), 6-[6-Fluoro-2-(methylcarbamoyl)phenylsulfanyl]-3-E-[2-(pyridin-2-yl)ethenyl]-1H-indazole]
+ albumin
  IC50: > 100 nM

## CC(=O)c1cccc(NC(=O)c2ccccc2Sc2ccc3c(/C=C/c4ccccn4)n[nH]c3c2)c1
  % inhibition: 5%

## O=C(NCCCN1CCCCC1)c1ccccc1Sc1ccc2c(/C=C/c3ccccn3)n[nH]c2c1
[1]
  % inhibition of the proliferation of HUVEC: 16%
[2]
  % inhibition of the proliferation of HUVEC: 7%

## CN(C)CCCCCCNC(=O)c1ccccc1Sc1ccc2c(/C=C/c3ccccn3)n[nH]c2c1
[1]
  % inhibition of the proliferation of HUVEC: 42%
[2]
  % inhibition of the proliferation of HUVEC: 22%

## O=C(Nc1ccc2cn[nH]c2c1)c1ccc2c(-c3nc4ccccc4[nH]3)n[nH]c2c1
[3]
  % inhibition of the proliferation of HUVEC: 0%
[4]
  % inhibition of the proliferation of HUVEC: 2%
[5]
  % inhibition of the proliferation of HUVEC: 4%

## COc1ccc(CCNC(=O)c2ccccc2Sc2ccc3c(/C=C/c4ccccn4)n[nH]c3c2)cc1
  % inhibition: 10%

## CNNC(=O)c1ccccc1Sc1ccc2c(/C=C/c3ccccn3)n[nH]c2c1
[1]
  % inhibition of the proliferation of HUVEC: 13%
[2]
  % inhibition of the proliferation of HUVEC: 31%

## Cc1cccc(O)c1NC(=O)c1ccccc1Sc1ccc2c(/C=C/c3ccccn3)n[nH]c2c1
  % inhibition: 11%

## O=C(Nc1ccccc1CCO)c1ccccc1Sc1ccc2c(/C=C/c3ccccn3)n[nH]c2c1
  % inhibition: 10%

## Cc1cc(NC(=O)c2ccccc2Sc2ccc3c(/C=C/c4ccccn4)n[nH]c3c2)n(C)n1
[1]
  % inhibition of the proliferation of HUVEC: 39%
[2]
  % inhibition of the proliferation of HUVEC: 13%

## O=C(c1ccc2c(-c3nc4ccccc4[nH]3)n[nH]c2c1)N1CCC(O)C1 (stereo not shown)
[3]
  % inhibition of the proliferation of HUVEC: 10%
[4]
  % inhibition of the proliferation of HUVEC: −2%
[5]
  % inhibition of the proliferation of HUVEC: 19%

## O=C(Nc1ccccc1-c1ccccc1)c1ccccc1Sc1ccc2c(/C=C/c3ccccn3)n[nH]c2c1
  % inhibition: 1%

## CC1CCC(NC(=O)c2ccccc2Sc2ccc3c(/C=C/c4ccccn4)n[nH]c3c2)CC1 (stereo not shown)
[1]
  % inhibition of the proliferation of HUVEC: −11%
[2]
  % inhibition of the proliferation of HUVEC: 42%

## CCn1nccc1NC(=O)c1ccccc1Sc1ccc2c(/C=C/c3ccccn3)n[nH]c2c1
[1]
  % inhibition of the proliferation of HUVEC: 26%
[2]
  % inhibition of the proliferation of HUVEC: 2%

## CCCC(CO)NC(=O)c1ccccc1Sc1ccc2c(/C=C/c3ccccn3)n[nH]c2c1 (stereo not shown)
[1]
  % inhibition of the proliferation of HUVEC: 44%
[2]
  % inhibition of the proliferation of HUVEC: 40%

## COC1C=CC(CNC(=O)c2ccccc2Sc2ccc3c(/C=C/c4ccccn4)n[nH]c3c2)(OC)O1 (stereo not shown)
  % inhibition: 0%

## CC(C)(C)c1ccc(CNC(=O)c2ccccc2Sc2ccc3c(/C=C/c4ccccn4)n[nH]c3c2)cc1
  % inhibition: −1%

## COc1ccc(CCNC(=O)c2ccccc2Sc2ccc3c(/C=C/c4ccccn4)n[nH]c3c2)cc1OC
  % inhibition: −3%

## CC(=O)Nc1cc(C(=O)c2ccc3c(/C=C/c4ccccn4)n[nH]c3c2)c(C)cc1C [Example 41(nn), 6-(5-Acetamido-2,4-dimethylbenzoyl)-3-E-[2-(pyridin-2-yl)ethenyl]-1H-indazole]
+ albumin
  IC50: > 100 nM

## O=C(Nc1nc(Cl)ncc1F)c1ccccc1Sc1ccc2c(/C=C/c3ccccn3)n[nH]c2c1
  % inhibition: 11%

## C#CC1(NC(=O)c2ccccc2Sc2ccc3c(/C=C/c4ccccn4)n[nH]c3c2)CCCCC1
  % inhibition: 3%

## O=C(O)CCNC(=O)c1ccccc1Sc1ccc2c(/C=C/c3ccccn3)n[nH]c2c1
[1]
  % inhibition of the proliferation of HUVEC: 4%
[2]
  % inhibition of the proliferation of HUVEC: 20%

## Cc1cc(NC(=O)c2ccccc2Sc2ccc3c(/C=C/c4ccccn4)n[nH]c3c2)no1
[1]
  % inhibition of the proliferation of HUVEC: 28%
[2]
  % inhibition of the proliferation of HUVEC: 14%

## Cc1ccc(CO)cc1NC(=O)c1ccccc1Sc1ccc2c(/C=C/c3ccccn3)n[nH]c2c1
  % inhibition: 1%

## CCCC(CCC)NC(=O)c1ccccc1Sc1ccc2c(/C=C/c3ccccn3)n[nH]c2c1
[1]
  % inhibition of the proliferation of HUVEC: 1%
[2]
  % inhibition of the proliferation of HUVEC: 52%

## O=C(Nc1ccc2c(c1)OCO2)c1ccccc1Sc1ccc2c(/C=C/c3ccccn3)n[nH]c2c1
  % inhibition: 9%

## NC(=O)C1CCN(C(=O)c2ccc3c(-c4nc5ccccc5[nH]4)n[nH]c3c2)CC1
[3]
  % inhibition of the proliferation of HUVEC: 44%
[4]
  % inhibition of the proliferation of HUVEC: 5%
[5]
  % inhibition of the proliferation of HUVEC: 82%

## O=C(Nc1ccc(CO)cc1)c1ccccc1Sc1ccc2c(/C=C/c3ccccn3)n[nH]c2c1
  % inhibition: −18%

## O=C(NCC(F)(F)C(F)(F)F)c1ccccc1Sc1ccc2c(/C=C/c3ccccn3)n[nH]c2c1
  % inhibition: −22%

## CCCCC(=O)NNC(=O)c1ccccc1Sc1ccc2c(/C=C/c3ccccn3)n[nH]c2c1
[1]
  % inhibition of the proliferation of HUVEC: 40%
[2]
  % inhibition of the proliferation of HUVEC: 94%

## CCOC(=O)CC(C)NC(=O)c1ccc2c(-c3nc4ccccc4[nH]3)n[nH]c2c1 (stereo not shown)
[3]
  % inhibition of the proliferation of HUVEC: 31%
[4]
  % inhibition of the proliferation of HUVEC: −17%
[5]
  % inhibition of the proliferation of HUVEC: 20%

## CC(C)(C)NC(=O)c1ccccc1Sc1ccc2c(/C=C/c3ccccn3)n[nH]c2c1
  % inhibition: 23%

## COc1cc(NC(=O)c2ccccc2Sc2ccc3c(/C=C/c4ccccn4)n[nH]c3c2)cc(OC)c1
  % inhibition: −60%

## O=C(Nc1cccc2cc(O)ccc12)c1ccccc1Sc1ccc2c(/C=C/c3ccccn3)n[nH]c2c1
  % inhibition: −22%

## NC(=O)C1CCCN(C(=O)c2ccc3c(-c4nc5ccccc5[nH]4)n[nH]c3c2)C1 (stereo not shown)
[3]
  % inhibition of the proliferation of HUVEC: 3%
[4]
  % inhibition of the proliferation of HUVEC: 13%
[5]
  % inhibition of the proliferation of HUVEC: 36%

## O=C(NC1CCCCC1)c1ccc2c(-c3nc4ccccc4[nH]3)n[nH]c2c1
[3]
  % inhibition of the proliferation of HUVEC: 3%
[4]
  % inhibition of the proliferation of HUVEC: −3%
[5]
  % inhibition of the proliferation of HUVEC: 46%
